As a reminder, the IC50 is the concentration at which inhibition is half-maximal. A lower IC50 goes with higher potency. Usually Ki stands for the equilibrium dissociation constant of an inhibitor or competing ligand from its target. Higher therefore signals a looser hold on the target. As a reminder, the Km is the substrate concentration at which the rate is half of its maximum.

One test has as its target T1, Yersinia PTPase (Yersinia enterocolitica, UniProt P15273).
T1 construct: purchased Calbiochem
Kind of test: biochemical. Format: biochemical.

A further test has as its target T2, LAR PTPase (Homo sapiens, UniProt P10586).
T2 construct: purchased Calbiochem
T2 sequence (P10586 1301-1639 limits assumed): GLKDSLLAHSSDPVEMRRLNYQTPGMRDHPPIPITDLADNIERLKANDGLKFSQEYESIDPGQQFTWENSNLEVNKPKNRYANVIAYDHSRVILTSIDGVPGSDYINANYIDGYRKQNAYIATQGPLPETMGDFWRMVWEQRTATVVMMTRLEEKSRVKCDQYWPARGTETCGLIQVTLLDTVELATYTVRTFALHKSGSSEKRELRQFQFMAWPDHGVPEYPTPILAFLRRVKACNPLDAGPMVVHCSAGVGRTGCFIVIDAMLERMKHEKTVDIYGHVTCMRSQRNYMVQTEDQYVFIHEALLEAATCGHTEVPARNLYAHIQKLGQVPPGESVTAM
Kind of test: LAR PTPase assay (p-NPP hydrolysis, UV at 420 nm). It is filed as biochemical. Conditions: 100 mM acetate pH 5.5, 10% DMSO; read-out: Km of substrate, LAR.

Test [1] addresses T3, PTP1B (Homo sapiens, UniProt P18031).
T3 construct: purchased Calbiochem
T3 sequence (P18031 1-435): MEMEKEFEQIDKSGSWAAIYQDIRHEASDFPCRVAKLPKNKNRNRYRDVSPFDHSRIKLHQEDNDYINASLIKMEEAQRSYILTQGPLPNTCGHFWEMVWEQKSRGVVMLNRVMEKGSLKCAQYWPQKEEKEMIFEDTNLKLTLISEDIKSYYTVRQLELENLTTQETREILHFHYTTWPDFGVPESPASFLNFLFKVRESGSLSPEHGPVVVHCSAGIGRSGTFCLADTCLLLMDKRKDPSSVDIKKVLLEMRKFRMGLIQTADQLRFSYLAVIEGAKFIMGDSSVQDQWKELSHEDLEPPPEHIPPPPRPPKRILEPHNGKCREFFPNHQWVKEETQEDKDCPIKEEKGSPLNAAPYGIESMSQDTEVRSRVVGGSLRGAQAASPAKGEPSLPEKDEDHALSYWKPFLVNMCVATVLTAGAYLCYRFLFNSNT
Conditions: absence of DMSO, acetate buffer pH 5.5; reference 1; read-out: Km of substrate, PTP1B (reported); cited from earlier work.

Test [2] deals with T3, PTP1B. Kind of test: PTP1B assay (p-NPP hydrolysis, UV at 420 nm). It is filed as biochemical. Conditions: 100 mM acetate pH 5.5, 10% DMSO; read-out: Km of substrate, PTP1B. The protocol:
PTP1B Assay: PTP1B (purchased from Calbiochem) was assayed usingp-NPP as the substrate and the reaction progress was monitored by UV spectroscopy. Initial rates were determined by monitoring the hydrolysis of p-NPP at 420 nm, from 10 to 120 s after mixing. Assay solutions contained 1.2 mM substrate, 1 mM EDTA, 100 mM NaCl, and 100 mM acetate at pH 5.5, and 10% DMSO. IC50 values were calculated using a Dixon analysis. Data analysis was performed with the commercial graphing package Grafit (Erithacus Software Ltd.).

SMILES strings stand for the structures. Read-outs that look alike come from different tables or passages of the source.

T1 sequence (P15273 whole entry): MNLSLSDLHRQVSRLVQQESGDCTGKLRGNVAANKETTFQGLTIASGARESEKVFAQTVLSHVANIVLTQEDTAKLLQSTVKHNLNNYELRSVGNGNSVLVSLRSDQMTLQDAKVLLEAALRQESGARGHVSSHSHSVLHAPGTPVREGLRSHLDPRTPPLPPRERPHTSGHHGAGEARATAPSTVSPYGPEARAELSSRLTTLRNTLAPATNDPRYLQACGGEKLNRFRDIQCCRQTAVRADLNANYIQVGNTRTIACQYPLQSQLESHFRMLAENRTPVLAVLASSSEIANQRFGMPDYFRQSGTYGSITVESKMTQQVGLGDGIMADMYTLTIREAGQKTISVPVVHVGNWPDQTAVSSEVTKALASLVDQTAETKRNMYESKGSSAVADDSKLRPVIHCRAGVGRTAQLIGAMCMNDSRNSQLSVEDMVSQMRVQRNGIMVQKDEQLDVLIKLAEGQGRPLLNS

Compound `O=C(O)C(=O)c1ccccc1` [Compound 1] showed an IC50 on Yersinia PTPase of 2700 µM. In other words, the millimolar range.

The compound `O=C(O)C(=O)c1c[nH]c2ccccc12` [Compound 8] displayed an IC50 at Yersinia PTPase of 390 µM. This IC50 lies about 6.9-fold lower than the previous one.

For the compound `COc1ccc(C(=O)C(=O)O)cc1` [Compound 10], the half-inhibitory concentration (IC50) against Yersinia PTPase was determined as 150 µM.

On Yersinia PTPase, `O=C(O)C(=O)c1ccco1` [Compound 11] had a Ki of 79 µM.

For the compound `O=C(O)C(=O)c1ccc(O)cc1` [Compound 27], the IC50 against Yersinia PTPase was 200 ± 20 µM.

As for `O=[N+]([O-])c1ccc(OP(=O)(O)O)cc1` [p-NPP], the Km at LAR PTPase was 2100 µM; on PTP1B [1], 750 µM; at Yersinia PTPase (pH 5.5, read-out: Km of substrate, Yersinia PTPase) it was 2500 µM; at PTP1B [2], 620 µM.

The values above are taken from patent US20030120073A1, “Alpha-ketocarboxylic acid based inhibitors of phosphoryl tyrosine phosphatases” (priority 2001, published 2003).
